Assay results published in PMC5477094, “Antiresorptive effect of a cathepsin K inhibitor ONO-5334 and its relationship to BMD increase in a phase II trial for postmenopausal osteoporosis” (BMC Musculoskeletal Disorders, 2017).
Where two headings read alike, the source gives them in different places.

What was measured:
[1] = tested on: serum C-telopeptide of type I collagen (sCTX); assay: Simulation of sCTX inhibition from plasma ONO-5334 concentrations with sigmoidal Emax model; set-up: species or system human
Description: PK data from the MAD study and the relationship between plasma ONO-5334 levels and sCTX inhibition in healthy postmenopausal women obtained from the PKPD study were used in simulation of the antiresorptive effect of ONO-5334 [29, 31]. Our previous PK data for 14 days after repeated administration were also used in the simulation. sCTX inhibition for doses and regimens in the OCEAN study were simulated using plasma ONO-5334 levels and the sigmoidal Emax model in the PKPD study (Fig. 1). The sigmoidal Emax model was fitted to data using log-transformed ONO-5334 plasma concentrations and effects on sCTX inhibition, using the following equation [32]. Effect=E0+Emax×C^r/EC50r+C^r

Solubility of ONO-5334 = assay type: physicochemical; settings: at acidic pH
[2] = tested on: postmenopausal women with osteoporosis or osteopenia; set-up: method as in PMID 21312264, PMID 23873670; settings: 300 mg QD, OCEAN study; cited from earlier work
[3] = cited from earlier work
[4] = set-up: method as in earlier work; settings: at morning on 12 month in the OCEAN study, full analysis set, cited from earlier work
[5] = tested on: serum C-telopeptide of type I collagen (sCTX); set-up: method as in PMID 26188109; settings: PKPD study, SR tablets, cited from earlier work
[6] = tested on: postmenopausal women with osteoporosis or osteopenia; assay: BMD increase (DXA) in the OCEAN study and linear regression against mean sCTX inhibition over 24 h; assay type: in vivo, human; settings: at 1 year
Method: PK data at 50 mg BID, 100 mg QD and 300 mg QD were used from the 15-day multiple-dosing cohort in a phase 1 study of ONO-5334 IR tablets (MAD study, n = 96). The MAD study was a randomized, double-blind, single-center study conducted at the Kendle Clinical Pharmacology Unit, Utrecht, The Netherlands, from April to November 2006 (EudraCT: not applicable). The sigmoidal relationship (Emax model) between plasma ONO-5334 concentrations and sCTX inhibition was taken from a study using SR tablets of ONO-5334 (PKPD study, n = 10). The PKPD study was a phase 1, 2-part (4- and 2-way crossover), open-label, randomized trial conducted at Pharmaceutical Profiles, Ruddington, Nottingham, United Kingdom, from January 2008 to April 2008 (European Union Clinical Trials Register [EudraCT]: 2007–005206-47). Data for sCTX inhibition and increase in BMD after 1 year of treatment were taken from the OCEAN study (n = 285). […]
The relationship of sCTX inhibition for 24 h and the mean increase in BMD for the lumbar spine (L1-L4) and total hip after 1 year of treatment in the OCEAN study were analyzed. BMD in the OCEAN study was measured using dual-energy X-ray absorptiometry (DXA) (Prodigy, GE Lunar, Madison, WI, USA). […]

[7] = at 12 h after administration in MAD study, cited from earlier work
[8] = tested on: postmenopausal women with osteoporosis or osteopenia; set-up: method as in PMID 21312264, PMID 23873670; settings: OCEAN study, cited from earlier work

C[C@@H]1CS/C(=N\NC(=O)C(=O)[C@@H](NC(=O)C2CCCCCC2)C2CCOCC2)N1C [ONO-5334]
Cmax relative to the concentration required for 99% Emax ([1]; 50 mg BID): 4 times
Cmax relative to the concentration required for 99% Emax ([1]; 100 mg QD): 14 times
Cmax relative to the concentration required for 99% Emax ([1]; 300 mg QD): 56 times
solubility (Solubility of ONO-5334): high
safety [2]: no safety concerns
PK parameters, Cmax and AUC, postprandial administration compared with a fasted state [3]: do not differ significantly
time for trough plasma ONO-5334 level to reach steady state ([3]; repeated administration, after the first administration, earlier phase I studies): 2 days
Plasma ONO-5334 concentration (Mean ± SD) ([4]; 50 mg BID): 2.51 ± 1.60 ng/mL
Plasma ONO-5334 concentration (Mean ± SD) ([4]; 100 mg QD): 4.51 ± 3.26 ng/mL
Plasma ONO-5334 concentration (Mean ± SD) ([4]; 300 mg QD): 14.4 ± 10.6 ng/mL
effect span (Emax) of sigmoidal Emax model for sCTX [5]: −54.0%
half-maximal effective concentration of ONO-5334 (EC50) for sCTX inhibition ([5]; plasma concentration): 2.07 ng/mL
maximum BMD increase (100% Emax for 24 h) calculated by linear regression ([6]; lumbar spine): 4.85%
maximum BMD increase (100% Emax for 24 h) calculated by linear regression ([6]; total hip): 3.05%
Plasma ONO-5334 concentration (Mean ± SD) ([7]; 50 mg BID): 1.82 ± 0.33 ng/mL
Plasma ONO-5334 concentration (Mean ± SD) ([7]; 100 mg QD): 2.74 ± 0.99 ng/mL
Plasma ONO-5334 concentration (Mean ± SD) ([7]; 300 mg QD): 14.5 ± 6.33 ng/mL
effect on BMD ([8]; 50 mg BID and 300 mg QD): increased BMD at all measured sites
efficacy for increasing BMD compared to 50 mg BID and 300 mg QD ([8]; 100 mg QD): less efficacy
